[dFC] = 2'-deoxy-2',2'-difluorocytidine (gemcitabine) nucleoside, linked at the 5' end of the ODN; d = 2'-deoxy (DNA)
Assays:
[1] = Stability studies in pyridine and ammonia (TLC, Rf, UV, HPLC); type: physicochemical; conditions: 37° C., 18 hrs
Description: The 2′-deoxy, 2′,2′-difluorocytidine derivatives, N-Bz-Gemcitabine and 5′-O-DMT-(N-bz) Gemcitabine prepared as above, were tested for their stability.

[2] = tested on: human colon adenocarcinoma cancerous cells HT29; experiment: Flow cytometric DNA cell cycle profile, killing of colon cancer cells; type: cell-based; conditions: for killing colon cancer cells HT29, compared with Gemcitabine (Gemzar) alone at equivalent dosages: 20 and 50 ng/ml Gemzar equivalent, 1 hour treatment, then 47 hours in normal medium without drugs, FIG. 13
[3] = tested on: human colon normal cells CCD112CoN; experiment: Flow cytometric DNA cell cycle profile, killing of colon normal cells; type: cell-based; conditions: 20 and 50 ng/ml Gemzar equivalent; 1 hour treatment, then 47 hours in normal medium without drugs; FIG. 14
Description: Monolayer cultures of human colon adenocarcinoma cancerous cells HT29 (American Type Culture Collection HTB-38), and human colon normal cells CCD112CoN (American Type Culture Collection CRL-1541) were grown in DMEM growth medium, or Dulbecco's modified Eagle's medium (DMEM; Sigma Chemical Co., St. Louis, Mo.) containing 10% fetal bovine serum (FBS; Biological Industries, Kibbutz, Israel). Incubation was in 10% CO2 at 37° C.
Gemzar (MW 299.5), or 2′-deoxy, 2′,2′-difluorocytidine hydrochloride for injection, as manufactured by Lilly France S.A., Fegersheim, France). Gemzar-ODNs were 2′-deoxy, 2′,2′-difluorocytidine (dFC, or difluorodeoxycitidine) linked to 4 oligodeoxynucleotide (ODN) sequences (synthesized by Chemgenes Corp, Wilmington, Mass.) as follows:
Aqueous stock solutions were prepared at the Gemzar or Gemzar-equivalent concentration of 0.2 mg/ml. Parallel monolayer cultures in log phase growth were treated for 1 hr at 37° C. with a final concentration of 0, 20 and 50 ng/ml of Gemzar or Gemzar equivalent from each of the 4 sequences of Gemzar-ODN that were synthesized. After the 1 hr pulse treatment with either Gemzar or Gemzar-ODNs, the cell cultures were reincubated for another 47 hr at 37° C. in normal DMEM growth medium without Gemzar or Gemzar-ODN. Control cultures were similar parallel cultures and had similar 1 hr and 47 hr reincubations, except without any Gemzar or Gemzar-ODN content. After the 47 hr reincubation, all cultures were evaluated at the same time for their DNA cell cycle profile using flow cytometry.
This was evaluated as previously described (Cell Death Differ. 4: 213-223, 1997; Exp. Cell Res. 240: 293-304, 1998). Propidium iodide (PI) stock solution was prepared at 50 ug/ml in tris buffered saline (1.21 mg/ml Tris, 0.584 mg/ml NaCl). Ribonuclease A (RNase A) was freshly added to the PI stock solution at 6 mg/ml immediately before use. Cells were harvested by scraping with a cell scraper and triturated to obtain a single cell suspension using a hypodermic syringe fitted with a 21-gauge needle. Cells were spun down at 1000 g for 5 min, and washed once in 5 ml phosphate buffered saline (PBS A, Oxoid, London, UK). Cells were then permeabilized by resuspending in 1% Bouin's fluid (15 parts 1.2% saturated aqueous picric acid, 5 parts formalin, 1 part glacial acetic acid) in PBS. Cells were repelleted and suspend in the PI-RNase for 1 hour over ice, before flow cytometric evaluation at ex/em 488/590 nm and 20,000 counts sample size. The Coulter Epics Elite ESP flow cytometer and Workstation program version 4.01 (Coulter Electronics, Hialeah, Fla.) were used with WinMDI version 2.8 (Scripps Research Institute, La Jolla, Calif.

Molecule | killing colon cancer cells HT29, compared with Gemcitabine (Gemzar) alone at equivalent dosages [2] | killing colon normal cells CCD-112CO, compared with Gemcitabine (Gemzar) alone at equivalent dosages [3] | other results
O=C(Nc1ccn([C@@H]2O[C@H](CO)[C@@H](O)C2(F)F)c(=O)n1)c1ccccc1 [Compound II, N-Benzoyl-2′-deoxy, 2′,2′-difluorocytidine] | – | – | stability (breakdown) in pyridine and ammonia [1]: converted into 2′-deoxy, 2′,2′-difluorocytidine completely without any deterioration and byproduct formation; stability (breakdown) in pyridine and ammonia ([1]; listed as N-Bz-Gemcitabine): no breakdown of Gemcitabine, other than loss of the protecting group
COc1ccc(C(OC[C@H]2O[C@@H](n3ccc(NC(=O)c4ccccc4)nc3=O)C(F)(F)[C@@H]2O)(c2ccccc2)c2ccc(OC)cc2)cc1 [Compound III, 5′-O-DMT (N-Bz) 2′-deoxy, 2′,2′-difluorocytidine] | – | – | stability (breakdown) in pyridine and ammonia [1]: no breakdown of Gemcitabine, other than loss of the protecting group
Cl.Nc1ccn([C@@H]2O[C@H](CO)[C@@H](O)C2(F)F)c(=O)n1 [Gemzar, 2′-deoxy, 2′,2′-difluorocytidine hydrochloride, reference compound] | – | – | difference between the killing of cancer cells and normal cells ([2]; HT29 (FIG. 13) compared with CCD-112CO (FIG. 14) at equivalent dosages): only minimal difference
dFC GGA CG (NGGACG; sugars from the 5' end [dFC]1 d5, backbone, methylation of C and the base at N not given here) [GEMCITABINE-ODN-Seq. I.D.#7, Gemzar-ODN] | much more effectively than by treatment with GEMCITABINE alone | more effectively than by treatment with GEMCITABINE alone | –
dFC GGA CGT GGA ACG (NGGACGTGGAACG; sugars from the 5' end [dFC]1 d12, backbone, methylation of C and the base at N not given here) [GEMCITABINE-ODN-Seq. I.D.#9, Gemzar-ODN] | much more effectively than by treatment with GEMCITABINE alone | more effectively than by treatment with GEMCITABINE alone | –
dFC GGA GCT GGA ACG (NGGAGCTGGAACG; sugars from the 5' end [dFC]1 d12, backbone, methylation of C and the base at N not given here) [GEMCITABINE-ODN-Seq. I.D.#10, Gemzar-ODN] | much more effectively than by treatment with GEMCITABINE alone | more effectively than by treatment with GEMCITABINE alone | –
dFC GTG GAA CG (NGTGGAACG; sugars from the 5' end [dFC]1 d8, backbone, methylation of C and the base at N not given here) [GEMCITABINE-ODN-Seq. I.D.#8, Gemzar-ODN] | much more effectively than by treatment with GEMCITABINE alone | more effectively than by treatment with GEMCITABINE alone | –

From patent US7846436B2, “Oligonucleotides and related compounds” (ChemGenes Corporation, priority 2003, dated 2010)
